Laboratory results reported in patent US12029730B2, “Pharmaceutical composition for preventing or treating cancer, containing N-1H-benzimidazol-2-yl-3-(1H-pyrrole-1-yl)benzamide as active ingredient” (KOREA INSTITUTE OF RADIOLOGICAL & MEDICAL SCIENCES, priority 2018, dated 2024).

Assays:
MASTL kinase = molecular target: T1, MASTL kinase (Homo sapiens, UniProt Q96GX5); assay: In vitro MASTL kinase analysis, immunoblotting for phosphorylated ENSA; format: biochemical; conditions: western blot, 50 μM or more, FIG. 3
T1 construct: GST; purchased Thermo Fisher Scientific
T1 sequence (Q96GX5 1-879): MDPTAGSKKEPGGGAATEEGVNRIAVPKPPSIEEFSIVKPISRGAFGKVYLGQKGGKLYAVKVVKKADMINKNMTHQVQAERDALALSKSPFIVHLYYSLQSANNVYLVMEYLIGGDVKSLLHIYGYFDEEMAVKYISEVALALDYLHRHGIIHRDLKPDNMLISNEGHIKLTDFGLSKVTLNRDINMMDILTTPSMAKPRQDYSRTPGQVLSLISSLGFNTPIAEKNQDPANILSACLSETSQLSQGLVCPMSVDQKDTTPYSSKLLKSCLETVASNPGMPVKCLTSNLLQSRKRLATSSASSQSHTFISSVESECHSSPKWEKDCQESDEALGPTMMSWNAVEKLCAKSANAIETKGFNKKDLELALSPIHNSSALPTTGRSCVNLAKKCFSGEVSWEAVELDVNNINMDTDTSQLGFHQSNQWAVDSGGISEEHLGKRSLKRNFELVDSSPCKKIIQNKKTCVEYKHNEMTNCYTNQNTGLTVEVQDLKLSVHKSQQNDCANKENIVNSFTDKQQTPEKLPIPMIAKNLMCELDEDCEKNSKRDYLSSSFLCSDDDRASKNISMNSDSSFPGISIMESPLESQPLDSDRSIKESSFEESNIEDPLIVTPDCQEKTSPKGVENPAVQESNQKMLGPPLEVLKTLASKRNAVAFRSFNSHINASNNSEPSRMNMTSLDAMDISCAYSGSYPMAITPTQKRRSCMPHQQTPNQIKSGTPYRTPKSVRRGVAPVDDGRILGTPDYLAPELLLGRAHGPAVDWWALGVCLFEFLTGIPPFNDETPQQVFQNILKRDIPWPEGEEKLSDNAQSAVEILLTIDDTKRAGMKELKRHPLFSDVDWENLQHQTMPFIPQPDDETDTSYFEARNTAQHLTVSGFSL
Procedure: The MASTL kinase analysis in vitro was performed by reacting recombinant GST-tagged-MASTL (Thermo Fisher Scientific, Waltham, MA, USA) and his-tagged-ENSA (Sino Biological Inc., Beijing, China) proteins or immunoprecipitated proteins derived from MCF7 cells with the MASTL antibody (AP7147d; Abgent, CA, USA) in a kinase buffer consisting of 100 mM Tris-HCl (pH 7.5), 30 mM MgCl2, 2 mM DTT, 1 mM EDTA and 10 μM ultrapure ATP. The reaction proceeded, and then stopped by treating with SDS-loading buffer. In this experiment, the multi-AGC kinase inhibitor AT13148 was used as a positive control. The reaction was analyzed by performing immunoblotting for phosphorylated ENSA, and the results of the analysis were shown in FIG. 1B, and the results of the experiments confirming the cell survival and the kinase inhibitor activity were shown in FIG. 1C.
A protein kinase analysis was performed using the ADP-Glo™ kinase assay kit according to the standard protocol provided by Promega. […] Then, the reacted product was transferred to a 384-well white plate, and […] was read using a SpectraMax i3× Multi-Mode Microplate Reader (Molecular Devices), and GKI-1, N-(4-chlorophenyl)-3-(1H-pyrazol-4-yl)aniline and AT13148 were used as positive controls. The effect of inhibiting kinase activity of GKI-1 and MKI-1 and its IC50 confirmed through the reading result were shown in FIG. 2. […]

[1] = tested on: MASTL kinase (phosphorylated ENSA); assay: Immunofluorescence staining of phosphorylated ENSA (Ser67)/ARPP19 (ser62) in MCF7; format: cell-based, human; conditions: with Colcemid 16 to 18 hours, FIG. 4
Procedure: After culturing 2.5×10^4 MCF7 cells in a 6-well plate for 24 hours, 80 ng/mL of a MASTL kinase inhibitor and a cell cycle control agent Colcemid (KaryoMAX™ Colcemid™ Solution in PBS; Gibco) were treated for 16 to 18 hours. After washing with phosphate buffered saline for fixation and permeabilization of cells, 4% paraformaldehyde and 0.2% Triton-X were added and reacted for 10 minutes, respectively. After 1 hour pretreatment with 5% fetal bovine serum, 1:100 diluted antibody against phosphorylated ENSA (Ser67)/ARPP19 (ser62) was treated for 16 hours, and then it was washed with 0.1% Triton X-100/phosphate buffered saline solution (Tritonx-100/PBS) 3 times. Alexa488-conjugated secondary antibody (AP132JA4, Invitrogen) was reacted for 2 hours at room temperature to label, and phosphorylated ENSA was photographed and analyzed using IN Cell Analyzer 6000 (GE Healthcare Life Science).

MASTL kinase (p-ENSA) = assay: Western blotting of phosphorylated ENSA in MCF7 cells; format: cell-based, human; conditions: western blot, FIG. 5
Procedure: (§1) 20 μg of protein was separated by SDS-PAGE electrophoresis and transferred to a PVDF membrane, and the following specific antibodies were used: rabbit polyclonal antibody MASTL (Abgent); phospho-ENSA (Ser67)/ARPP19 (Ser62) (#5240), ENSA (#11915S), cleaved PARP (Asp214) (#9541), AKT (#9272), phospho-AKT (ser473) (#9271), phospho-GSK-3α/β (Ser21/9) (#9331), phospho-p70S6K (The 288) (#9205) and phospho-Chk2 (Thr68) (#2661; Cell Signaling Technology, MA); p70S6K (sc-230; Santa Cruz Biotechnology, CA, USA), phospho-H3 (S10) (06-570, Merck, NJ); mouse monoclonal antibody caspase-2 (#2224S). In addition, mouse […] antibody β-actin (C4; Santa Cruz Biotechnology, CA, USA) was used as a loading control, it was washed with 1×PBS/0.1% Tween 20, and the binding protein was detected using HRP-binding secondary antibody and improved chemiluminescence detection system. The remaining conditions of Western blotting were the same as in Example 3, and the image of the band was obtained by Amersham Imager 600 system (GE Healthcare Life Science) or X-Ray film (AG, HealthCare, SC, USA) and it was shown in FIG. 5.

AKT = assay: Western blotting of AKT and GSK-3 phosphorylation in MCF7 cells; format: cell-based, human; conditions: western blot, FIG. 5
Procedure: as §1

phospho-H3 (S10) = assay: Western blotting of phosphorylated H3 in MCF7 cells; format: cell-based, human; conditions: western blot, FIG. 5
Procedure: as §1

O=C(Nc1nc2ccccc2[nH]1)c1cccc(-n2cccc2)c1 [MKI-1, N-1H-benzimidazol-2-yl-3-(1H-pyrrol-1-yl) benzamide]
ENSA phosphorylation (p-ENSA) in vitro (MASTL kinase): p-ENSA did not appear | phosphorylation of ENSA in MCF7 relative to DMSO [1]: close to about half of that of DMSO | expression level of phosphorylated p-ENSA (MASTL kinase (p-ENSA)): reduced the expression level of phosphorylated p-ENSA in MCF7 cells in a dose-dependent manner | activation of AKT / phosphorylated GSK-3 (AKT): did not regulate the activities of AKT and phosphorylated GSK-3P | expression level of phosphorylated H3 (phospho-H3 (S10)): increased the expression level of phosphorylated H3 in a dose-dependent manner
